This note sets out measurements from ChEMBL document CHEMBL6109122 (J Med Chem, 2025).

The structures appear in SMILES notation. The source made the active and inactive calls. No cut-off for these calls is given here.

For data set [1], the target named is T1, Protein cereblon/Non-receptor tyrosine-protein kinase TYK2 (Homo sapiens, UniProt P29597+Q96SW2). In words: PROTAC activity at CRBN/TYK2 in human Jurkat cells assessed as induction of degradation of TYK2 at 100 nM measured after 10 hrs by Western blot analysis relative to control. It is filed as cell-based. On the technique in general: In western blotting, separated proteins are transferred to a membrane and probed.
Target sequence in this assay (P29597 whole entry, looked up): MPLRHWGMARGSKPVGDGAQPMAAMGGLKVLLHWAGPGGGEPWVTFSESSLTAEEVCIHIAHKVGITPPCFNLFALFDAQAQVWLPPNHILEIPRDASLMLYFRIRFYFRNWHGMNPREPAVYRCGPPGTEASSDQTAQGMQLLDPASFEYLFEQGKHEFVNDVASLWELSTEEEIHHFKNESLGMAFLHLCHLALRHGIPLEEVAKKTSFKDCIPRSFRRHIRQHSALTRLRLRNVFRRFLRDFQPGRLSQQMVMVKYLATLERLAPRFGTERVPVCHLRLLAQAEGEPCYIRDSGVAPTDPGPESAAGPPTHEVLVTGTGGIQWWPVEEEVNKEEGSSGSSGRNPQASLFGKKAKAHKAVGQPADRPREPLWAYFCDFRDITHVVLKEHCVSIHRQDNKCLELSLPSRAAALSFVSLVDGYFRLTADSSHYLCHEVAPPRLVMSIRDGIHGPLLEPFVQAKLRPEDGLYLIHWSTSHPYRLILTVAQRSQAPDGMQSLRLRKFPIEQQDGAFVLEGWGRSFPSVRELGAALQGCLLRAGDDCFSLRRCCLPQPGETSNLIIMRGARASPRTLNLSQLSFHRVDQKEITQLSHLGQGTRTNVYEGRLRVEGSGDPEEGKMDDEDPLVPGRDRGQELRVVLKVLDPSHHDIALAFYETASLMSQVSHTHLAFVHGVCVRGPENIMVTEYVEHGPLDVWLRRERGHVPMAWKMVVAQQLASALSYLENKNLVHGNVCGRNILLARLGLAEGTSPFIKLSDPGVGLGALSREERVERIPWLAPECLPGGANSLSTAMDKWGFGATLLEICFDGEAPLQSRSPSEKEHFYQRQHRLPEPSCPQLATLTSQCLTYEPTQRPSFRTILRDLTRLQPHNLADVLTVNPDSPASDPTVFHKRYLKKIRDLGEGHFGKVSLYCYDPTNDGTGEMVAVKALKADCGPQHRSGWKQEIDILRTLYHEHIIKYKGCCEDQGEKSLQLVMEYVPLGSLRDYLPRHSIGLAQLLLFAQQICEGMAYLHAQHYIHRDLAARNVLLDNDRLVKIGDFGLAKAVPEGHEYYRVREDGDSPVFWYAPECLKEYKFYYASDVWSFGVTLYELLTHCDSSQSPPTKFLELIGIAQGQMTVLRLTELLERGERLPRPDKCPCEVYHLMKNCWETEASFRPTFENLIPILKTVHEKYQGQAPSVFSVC
Target sequence in this assay (Q96SW2 whole entry, looked up): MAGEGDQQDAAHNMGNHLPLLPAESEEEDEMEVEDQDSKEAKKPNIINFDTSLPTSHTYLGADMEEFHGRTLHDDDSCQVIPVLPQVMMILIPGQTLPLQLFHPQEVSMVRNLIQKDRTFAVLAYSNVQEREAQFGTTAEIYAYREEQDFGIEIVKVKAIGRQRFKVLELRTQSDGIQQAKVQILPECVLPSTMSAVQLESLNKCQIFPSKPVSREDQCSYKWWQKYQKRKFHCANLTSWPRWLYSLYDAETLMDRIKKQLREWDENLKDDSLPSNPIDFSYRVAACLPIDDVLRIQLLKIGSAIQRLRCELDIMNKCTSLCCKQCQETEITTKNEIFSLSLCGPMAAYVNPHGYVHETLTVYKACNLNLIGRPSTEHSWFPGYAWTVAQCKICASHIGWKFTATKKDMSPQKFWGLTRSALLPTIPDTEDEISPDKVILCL

In data set [2] the target is T1, Protein cereblon/Non-receptor tyrosine-protein kinase TYK2. In words: PROTAC activity at CRBN/TYK2 in human Jurkat cells assessed as induction of degradation of TYK2 at 10 nM measured after 10 hrs by Western blot analysis relative to control. It is filed as cell-based.
Target sequence in this assay (P29597 whole entry, looked up): as the sequence (P29597 whole entry, looked up) above
Target sequence in this assay (Q96SW2 whole entry, looked up): as the sequence (Q96SW2 whole entry, looked up) above
Data set [3] shares this target. Nature of the data set: PROTAC activity at CRBN/TYK2 in human Jurkat cells assessed as induction of degradation of TYK2 at 100 ug/ml measured after 10 hrs by Western blot analysis. It is filed as cell-based. To be noted: dose 100.0 µg/ml.
Target sequence in this assay (P29597 whole entry, looked up): as the sequence (P29597 whole entry, looked up) above
Target sequence in this assay (Q96SW2 whole entry, looked up): as the sequence (Q96SW2 whole entry, looked up) above
Data set [4] has the same target. Nature of the data set: PROTAC activity at CRBN/TYK2 in human Jurkat cells assessed as induction of degradation of TYK2 at 1 nM measured after 10 hrs by Western blot analysis relative to control. It is filed as cell-based.
Target sequence in this assay (P29597 whole entry, looked up): as the sequence (P29597 whole entry, looked up) above
Target sequence in this assay (Q96SW2 whole entry, looked up): as the sequence (Q96SW2 whole entry, looked up) above
The nature of data set [5]: Metabolic stability in mouse liver microsomes assessed as half life measured up to 120 mins by LC-MS/MS analysis. It is filed as ADME, Microsome.
Data set [6] can be described thus: Metabolic stability in mouse liver microsomes assessed as intrinsic clearance measured up to 120 mins by LC-MS/MS analysis. It is filed as ADME, Microsome. To be noted: read-out: CLH. For orientation: Microsomes from liver hold many membrane-bound enzymes, among them those of drug oxidation.
Data set [7] in a line: Inhibition of TYK2 dependent STAT3 phosphorylation in IL-6 stimulated human PBMC cells preincubated for 60 mins followed by IL-6 stimulation and measured after 60 mins by FACS assay. It is filed as cell-based. On the technique in general: A flow cytometer gives signals particle by particle.
A short description of data set [8]: Inhibition of TYK2 dependent STAT3 phosphorylation in IL-12 stimulated human PBMC cells preincubated for 60 mins followed by IL-12 stimulation and measured after 60 mins by FACS assay. It is filed as cell-based.
The nature of data set [9]: Cmax in male ICR mouse at 1 mg/kg, iv measured up to 24 hrs by LC-MS/MS analysis. It is filed as ADME, organism-based. The note with it: in vivo.
A short description of data set [10]: Oral bioavailability in male ICR mouse at 10 mg/kg measured up to 24 hrs by LC-MS/MS analysis. It is filed as ADME, organism-based. To be noted: in vivo.
Data set [11] in a line: Tmax in male ICR mouse at 10 mg/kg, po measured up to 24 hrs by LC-MS/MS analysis. It is filed as ADME, organism-based. To be noted: in vivo.
Data set [12] in a line: AUC (0 to infinity) in male ICR mouse at 10 mg/kg, po measured up to 24 hrs by LC-MS/MS analysis. It is filed as ADME, organism-based. The note with it: in vivo.
Data set [13] can be described thus: AUC (0 to t) in male ICR mouse at 10 mg/kg, po measured up to 24 hrs by LC-MS/MS analysis. To be noted: in vivo. It is filed as ADME, organism-based.
The nature of data set [14]: Half life in male ICR mouse at 10 mg/kg, po measured up to 24 hrs by LC-MS/MS analysis. It is filed as ADME, organism-based. The note with it: in vivo.
Data set [15] is described as follows: Cmax in male ICR mouse at 10 mg/kg, po measured up to 24 hrs by LC-MS/MS analysis. It is filed as ADME, organism-based. To be noted: in vivo.
Data set [16] is described as follows: AUC (0 to t) in male ICR mouse at 1 mg/kg, iv measured up to 24 hrs by LC-MS/MS analysis. It is filed as ADME, organism-based. To be noted: in vivo.
A short description of data set [17]: Tmax in male ICR mouse at 1 mg/kg, iv measured up to 24 hrs by LC-MS/MS analysis. It is filed as ADME, organism-based. To be noted: in vivo.
A short description of data set [18]: Apparent permeability of the compound in human Caco-2 cells at 10 uM measured up to 120 min by LC-MS/MS analysis. It is filed as ADME, cell-based.
Data set [19] in a line: Half life in male ICR mouse at 1 mg/kg, iv measured up to 24 hrs by LC-MS/MS analysis. To be noted: in vivo. It is filed as ADME, organism-based.
Data set [20] in a line: AUC (0 to infinity) in male ICR mouse at 1 mg/kg, iv measured up to 24 hrs by LC-MS/MS analysis. The note with it: in vivo. It is filed as ADME, organism-based.
Data set [21] deals with T1, Protein cereblon/Non-receptor tyrosine-protein kinase TYK2. In words: PROTAC activity at CRBN/TYK2 in human Jurkat cells assessed as induction of degradation of TYK2 measured after 10 hrs by Western blot analysis. It is filed as cell-based.
Target sequence in this assay (P29597 whole entry): as the sequence (P29597 whole entry, looked up) above
Target sequence in this assay (Q96SW2 whole entry): as the sequence (Q96SW2 whole entry, looked up) above
Data set [22] has the same target. In words: PROTAC activity at CRBN/TYK2 in human HaCaT cells assessed as induction of degradation of TYK2 measured after 10 hrs by Western blot analysis. It is filed as cell-based. The note with it: dose 1-100 nM, tested as the 2H-labelled form.
Target sequence in this assay (P29597 whole entry, looked up): as the sequence (P29597 whole entry, looked up) above
Target sequence in this assay (Q96SW2 whole entry, looked up): as the sequence (Q96SW2 whole entry, looked up) above

For `CNC(=O)c1cnc(Nc2ccc(C(=O)NCCCCNc3ccc4c(c3)C(=O)N(C3CCC(=O)NC3=O)C4=O)cn2)cc1Nc1cccc(-c2ncc(F)cn2)c1OC` (centres undefined), the Activity in data set [1] was 48%; in [2], 42%.

Consider `C[C@@H]1C[C@@H]([C@H](O)CC2CC(=O)NC(=O)C2)C(=O)[C@@H](C)C1`, for which, in data set [3], the outcome was Active.

Regarding `CNC(=O)c1cnc(Nc2ccc(C(=O)NCCNc3cccc4c3C(=O)N(C3CCC(=O)NC3=O)C4=O)cn2)cc1Nc1cccc(-c2ncc(F)cn2)c1OC` (centres undefined), the Activity stood at 15% in data set [1] and 12% in [2].

Broadly, the half-life is the time in which the quantity being followed falls by half. Take `CNC(=O)c1cnc(Nc2ccc(C(=O)N3CC4(C3)CN(c3ccc5c(c3)C(=O)N(C3CCC(=O)NC3=O)C5=O)C4)cn2)cc1Nc1cccc(-c2ncc(F)cn2)c1OC` (centres undefined): the figures for the Activity in data set [4], in [1] and in data set [2] were 46%, 68% and 83%, respectively. Besides, in [5], the half-life is 104 min. Besides, the CLint scaled in [6] was 53 mL/min/kg.

`CNC(=O)c1cnc(Nc2ccc(C(=O)NCCOCCOCCNc3cccc4c3C(=O)N(C3CCC(=O)NC3=O)C4=O)cn2)cc1Nc1cccc(-c2ncc(F)cn2)c1OC` (centres undefined): the Activity worked out at 56% in [1] and 5% in data set [2].

The term IC50 denotes the midpoint of a concentration-inhibition curve. A higher IC50 goes with lower potency. For `[2H]C([2H])([2H])NC(=O)c1nnc(NC(=O)C2CC2)cc1Nc1cccc(-c2ncn(C)n2)c1OC` [DEUCRAVACITINIB], the IC50 in [7] was 405 nM; in data set [8], 7.4 nM.

With `CNC(=O)c1cnc(Nc2ccc(C(=O)NCCCCNc3cccc4c3C(=O)N(C3CCC(=O)NC3=O)C4=O)cn2)cc1Nc1cccc(-c2ncc(F)cn2)c1OC` (centres undefined), the half-life in [5] amounted to 24 min. The Activity in data set [1] was found to be 82%; in data set [2], 26%. In data set [6], the CLint scaled worked out at 228 mL/min/kg.

The Cmax is the maximum level reached in the sampled fluid or tissue. A word on the bioavailability: it is the share of a dose that reaches the circulation, judged against a reference dose that is usually intravenous. A lower bioavailability goes with little systemic uptake. The Tmax is the time from dosing to the highest level. In general, AUC(0-inf) refers to total exposure, with the tail of the curve extrapolated. Usually AUC(0-t) stands for exposure summed from dosing to a finite time, without extrapolation to infinity. The low end stands for low exposure, the high end for high exposure. What is called Papp is a coefficient for how fast a substance crosses the barrier. In the case of `CNC(=O)c1cnc(Nc2ccc(C(=O)N(C)C3CCN(c4ccc5c(c4)C(=O)N(C4CCC(=O)NC4=O)C5=O)CC3)cn2)cc1Nc1cccc(-c2ncc(F)cn2)c1OC` (centres undefined), the Cmax amounted to 1490 ng/mL in data set [9] and 124 ng/mL in data set [15]. Further, in [10], the bioavailability is 2.2%. The results for the Tmax in data set [11] and in [17] were 18 min and 4.8 min, respectively. Moreover, the half-life is 41 min in [5], 72 min in [14] and 39.6 min in data set [19]. Moreover, the figures for the AUC(0-inf) in data set [12] and in data set [20] were 163 ng·h/mL and 717 ng·h/mL, respectively. Moreover, the AUC(0-t) at 24 h was 159 ng·h/mL in data set [13] and 712 ng·h/mL in data set [16]. Also, in data set [18], the Papp at 2 h, 10 µM was found to be 0.26 ×10⁻⁶ cm/s.

In the case of `CNC(=O)c1cnc(Nc2ccc(C(=O)N3CC4(CC(Nc5ccc6c(c5)C(=O)N(C5CCC(=O)NC5=O)C6=O)C4)C3)cn2)cc1Nc1cccc(-c2ncc(F)cn2)c1OC` (centres undefined), the Activity in data set [4] was 17%; in [1], 48%; in [2] it was 62%.

Consider `CNC(=O)c1cnc(Nc2ccc(C(=O)N3CCC4(CC3)CCN(c3ccc5c(c3)C(=O)N(C3CCC(=O)NC3=O)C5=O)CC4)cn2)cc1Nc1cccc(-c2ncc(F)cn2)c1OC` (centres undefined), for which the outcome in [4] was inactive. In addition, the Activity in [1] was 13%; in data set [2] it was 65%.

`CNC(=O)c1cnc(Nc2ccc(C(=O)N3CC4(CCN(c5ccc6c(c5)C(=O)N(C5CCC(=O)NC5=O)C6=O)CC4)C3)cn2)cc1Nc1cccc(-c2ncc(F)cn2)c1OC` (centres undefined): the Activity in data set [4] was found to be 42%; in data set [1], 61%; in data set [2] it was 69%.

For the molecule `CNC(=O)c1cnc(Nc2ccc(C(=O)N3CC(N4CCN(c5ccc6c(c5)C(=O)N(C5CCC(=O)NC5=O)C6=O)CC4)C3)cn2)cc1Nc1cccc(-c2ncc(F)cn2)c1OC` (centres undefined), the Activity was determined as 44% in [4], 67% in data set [1] and 77% in data set [2].

For the molecule `CNC(=O)c1cnc(Nc2ccc(C(=O)N3CCC(CNc4ccc5c(c4)C(=O)N(C4CCC(=O)NC4=O)C5=O)CC3)cn2)cc1Nc1cccc(-c2ncc(F)cn2)c1OC` (centres undefined), the values for the Activity in data set [4], in [1] and in data set [2] were 7%, 10% and 35%, respectively.

Turning to `CNC(=O)c1cnc(Nc2ccc(C(=O)NCCCNc3cccc4c3C(=O)N(C3CCC(=O)NC3=O)C4=O)cn2)cc1Nc1cccc(-c2ncc(F)cn2)c1OC` (centres undefined), the Activity in [1] was determined as 21%; in [2], 18%.

On to `CNC(=O)c1cnc(NC2CCN(CC3CCN(c4ccc5c(c4)C(=O)N(C4CCC(=O)NC4=O)C5=O)CC3)CC2)cc1Nc1cccc(-c2ncc(F)cn2)c1OC` (centres undefined), for which the half-life in [5] stood at 62 min. Besides, the Papp at 2 h, 10 µM in [18] was < 0.1 ×10⁻⁶ cm/s.

As to `CNC(=O)c1cnc(Nc2ccc(C(=O)NCCCCCNc3ccc4c(c3)C(=O)N(C3CCC(=O)NC3=O)C4=O)cn2)cc1Nc1cccc(-c2ncc(F)cn2)c1OC` (centres undefined), the half-life in data set [5] came out at 15 min. Further, the Activity in [1] worked out at 65%; in data set [2] it was 88%. Also, in data set [6], the CLint scaled stood at 365 mL/min/kg.

What is called DC50 is the concentration giving 50% degradation. As to `CNC(=O)c1cnc(Nc2ccc(C(=O)NCCCCCNc3cccc4c3C(=O)N(C3CCC(=O)NC3=O)C4=O)cn2)cc1Nc1cccc(-c2ncc(F)cn2)c1OC` (centres undefined), the DC50 in [21] is 0.43 nM. Further, the Activity came to 94% in [1] and 86% in [2].

Regarding `CNC(=O)c1cnc(Nc2ccc(C(=O)N3CCN(C4CCN(c5ccc6c(c5)C(=O)N(C5CCC(=O)NC5=O)C6=O)CC4)CC3)cn2)cc1Nc1cccc(-c2ncc(F)cn2)c1OC` (centres undefined), in [4], the result was inactive. Besides, the results for the Activity in data set [1] and in data set [2] were 7% and 17%, respectively.

With `CNC(=O)c1nnc(NC(=O)C2CC2)cc1Nc1cccc(-c2ncn(C)n2)c1OC`, the result in data set [1] (tested as the 2H-labelled form), in data set [22] and in data set [2] (tested as the 2H-labelled form) was inactive.

With `CNC(=O)c1cnc(Nc2ccc(C(=O)NCCCCCCNc3cccc4c3C(=O)N(C3CCC(=O)NC3=O)C4=O)cn2)cc1Nc1cccc(-c2ncc(F)cn2)c1OC` (centres undefined), the Activity in [1] was 69%; in data set [2] it was 48%.

`CNC(=O)c1cnc(Nc2ccc(C(=O)N3CCC(CN4CCN(c5ccc6c(c5)C(=O)N(C5CCC(=O)NC5=O)C6=O)CC4)CC3)cn2)cc1Nc1cccc(-c2ncc(F)cn2)c1OC` (centres undefined): the figures for the Activity in data set [4] and in data set [2] were 2% and 78%, respectively. In [1], the outcome was inactive.

Turning to `CNC(=O)c1cnc(Nc2ccc(C(=O)NCCCCCCCCNc3cccc4c3C(=O)N(C3CCC(=O)NC3=O)C4=O)cn2)cc1Nc1cccc(-c2ncc(F)cn2)c1OC` (centres undefined), the Activity in [1] is 74%; in data set [2], 72%.

With `CNC(=O)c1cnc(Nc2ccc(C(=O)NCCCCCCNc3ccc4c(c3)C(=O)N(C3CCC(=O)NC3=O)C4=O)cn2)cc1Nc1cccc(-c2ncc(F)cn2)c1OC` (centres undefined), the Activity is 62% in data set [1] and 46% in data set [2].

For the molecule `CNC(=O)c1cnc(Nc2ccc(C(=O)NCCOCCNc3cccc4c3C(=O)N(C3CCC(=O)NC3=O)C4=O)cn2)cc1Nc1cccc(-c2ncc(F)cn2)c1OC` (centres undefined), the figures for the Activity in [1] and in [2] were 66% and 32%, respectively.
